Results from ChEMBL document CHEMBL5528049, “Discovery of (4-Pyrazolyl)-2-aminopyrimidines as Potent and Selective Inhibitors of Cyclin-Dependent Kinase 2” (J Med Chem, 2024).

Key:
[1] = Protein binding in human plasma assessed as free fraction incubated for 2 hrs by LC-MS/MS analysis; type: ADME, cell-free
Cytochrome P450 1A2 = biological target: T1, Cytochrome P450 1A2 (Homo sapiens, UniProt P05177); assay: Inhibition of CYP1A2 in human liver microsomes using 7-ethoxyresorufin as substrate in presence of NADPH by LC-MS/MS analysis; type: ADME, Microsome
T1 sequence (P05177 whole entry): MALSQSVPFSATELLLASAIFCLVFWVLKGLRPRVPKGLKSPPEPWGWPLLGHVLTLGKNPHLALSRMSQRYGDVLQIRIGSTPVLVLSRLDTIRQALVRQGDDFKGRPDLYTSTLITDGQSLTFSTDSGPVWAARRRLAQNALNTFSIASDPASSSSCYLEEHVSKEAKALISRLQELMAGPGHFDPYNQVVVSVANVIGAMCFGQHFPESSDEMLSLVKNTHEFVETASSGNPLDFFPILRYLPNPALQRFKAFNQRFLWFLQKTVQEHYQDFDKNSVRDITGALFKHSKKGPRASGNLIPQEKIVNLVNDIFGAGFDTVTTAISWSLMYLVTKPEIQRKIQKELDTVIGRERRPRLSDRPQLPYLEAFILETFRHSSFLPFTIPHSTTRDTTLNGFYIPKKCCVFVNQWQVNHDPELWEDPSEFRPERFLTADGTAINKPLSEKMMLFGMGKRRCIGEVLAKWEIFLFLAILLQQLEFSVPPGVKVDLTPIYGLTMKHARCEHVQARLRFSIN

[2] = Oral bioavailability in cynomolgus monkey at 2 mg/kg administered as cassette dose and measured upto 24 hrs by LC-MS/MS analysis; type: ADME, organism-based, Macaca fascicularis; settings: in vivo
[3] = Cmax in cynomolgus monkey at 2 mg/kg, po administered as cassette dose and measured upto 24 hrs by LC-MS/MS analysis; type: ADME, organism-based, Macaca fascicularis; settings: in vivo
[4] = Toxicity in athymic nude mouse xenografted with human OVCAR-3 cells assessed as adverse effect at 30 mg/kg, po administered once daily for 28 days; type: organism-based; settings: in vivo, 672 h, time 28 day
OVCAR-3 = assay: Antitumor activity against human OVCAR-3 cells xenografted in athymic nude mouse assessed as tumor growth inhibition at 30 mg/kg, po administered once daily for 28 days relative to control; type: functional; settings: OVCAR-3, 672 h, time 28 day, read-out: TGI
Cytochrome P450 3A4 = Cytochrome P450 3A4 (Homo sapiens, UniProt P08684); assay: Inhibition of CYP3A4 in human liver microsomes using midazolam/testosterone as substrate in presence of NADPH by LC-MS/MS analysis; type: ADME, Microsome
Cytochrome P450 2C9 = Cytochrome P450 2C9 (Homo sapiens, UniProt P11712); assay: Inhibition of CYP2C9 in human liver microsomes using diclofenac as substrate in presence of NADPH by LC-MS/MS analysis; type: ADME, Microsome
[5] = In vivo inhibition of CDK2 in athymic nude mouse assessed as reduction in retinoblastoma protein phosphorylation at 30 mg/kg, po administered once daily for 5 days and measured after 24 hrs relative to control; type: functional; settings: 144 h, time 6 day
[6] = Cmax in Sprague-Dawley rat at 3 mg/kg, po administered as cassette dose and measured upto 24 hrs by LC-MS/MS analysis; type: ADME, organism-based; settings: in vivo
[7] = Hepatic blood flow in Sprague-Dawley rat at 0.5 mg/kg, iv administered as cassette dose and measured upto 24 hrs by LC-MS/MS analysis; type: ADME, organism-based; settings: in vivo
Cytochrome P450 2C8 = biological target: T2, Cytochrome P450 2C8 (Homo sapiens, UniProt P10632); assay: Inhibition of CYP2C8 in human liver microsomes using amodiaquine as substrate in presence of NADPH by LC-MS/MS analysis; type: ADME, Microsome
T2 sequence (P10632 whole entry): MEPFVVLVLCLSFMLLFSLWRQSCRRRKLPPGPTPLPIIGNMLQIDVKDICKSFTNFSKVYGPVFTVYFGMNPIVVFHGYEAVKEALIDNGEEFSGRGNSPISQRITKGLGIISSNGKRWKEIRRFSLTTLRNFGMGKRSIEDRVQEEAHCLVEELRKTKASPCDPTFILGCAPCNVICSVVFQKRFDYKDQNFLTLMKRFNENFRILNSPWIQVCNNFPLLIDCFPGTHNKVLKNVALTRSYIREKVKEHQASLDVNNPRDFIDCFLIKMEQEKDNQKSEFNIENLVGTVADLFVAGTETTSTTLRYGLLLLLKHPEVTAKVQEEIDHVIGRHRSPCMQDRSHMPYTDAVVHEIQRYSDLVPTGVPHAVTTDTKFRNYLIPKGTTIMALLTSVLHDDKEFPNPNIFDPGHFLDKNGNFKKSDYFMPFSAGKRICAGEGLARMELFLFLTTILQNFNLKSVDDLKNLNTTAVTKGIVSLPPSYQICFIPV

[8] = Toxicity in athymic nude mouse xenografted with human OVCAR-3 cells assessed as body weight loss at 30 mg/kg, po administered once daily for 28 days; type: organism-based; settings: in vivo, 672 h, time 28 day
[9] = Volume of distribution at steady state in cynomolgus monkey at 0.3 mg/kg, iv administered as cassette dose and measured upto 24 hrs by LC-MS/MS analysis; type: ADME, organism-based, Macaca fascicularis; settings: in vivo, read-out: Vdss
Cytochrome P450 2C19 = Cytochrome P450 2C19 (Homo sapiens, UniProt P33261); assay: Inhibition of CYP2C19 in human liver microsomes using S-mephenytoin as substrate in presence of NADPH by LC-MS/MS analysis; type: ADME, Microsome
[10] = Volume of distribution at steady state in Sprague-Dawley rat at 0.5 mg/kg, iv administered as cassette dose and measured upto 24 hrs by LC-MS/MS analysis; type: ADME, organism-based; settings: in vivo, read-out: Vdss
[11] = Drug concentration in athymic nude mouse plasma at 30 mg/kg, po administered as […] for 5 days and measured after 24 hrs; type: ADME, organism-based; settings: in vivo, 144 h, BLD = below limit of detection, time 6 day
[12] = Half-life in cynomolgus monkey at 0.3 mg/kg, iv administered as cassette dose and measured upto 24 hrs by LC-MS/MS analysis; type: ADME, organism-based, Macaca fascicularis; settings: in vivo
[13] = Toxicity in athymic nude mouse xenografted with human OVCAR-3 cells assessed as animal death at 30 mg/kg, po administered once daily for 28 days; type: organism-based; settings: in vivo, 672 h, time 28 day
hERG (KCNH2) = hERG (KCNH2) (Homo sapiens, UniProt Q12809); assay: Inhibition of human ERG at 10 uM by patch clamp method relative to control; type: toxicity
[14] = Intrinsic clearance in human liver microsomes at 1 uM measured upto 30 mins by LC/MS analysis; type: ADME, Microsome; settings: read-out: CLH (converted)
[15] = Apparent permeability from apical to basolateral side in human Caco-2 cells at 50 uM incubated for 120 mins by LCMS analysis
[16] = Oral bioavailability in Sprague-Dawley rat at 3 mg/kg administered as cassette dose and measured upto 24 hrs by LC-MS/MS analysis; type: ADME, organism-based; settings: in vivo
[17] = Hepatic blood flow in cynomolgus monkey at 0.3 mg/kg, iv administered as cassette dose and measured upto 24 hrs by LC-MS/MS analysis; type: ADME, organism-based, Macaca fascicularis; settings: in vivo
[18] = Solubility of compound in SGF by HPLC analysis
[19] = AUC in cynomolgus monkey at 2 mg/kg, po administered as cassette dose and measured upto 24 hrs by LC-MS/MS analysis; type: ADME, organism-based, Macaca fascicularis; settings: in vivo
Cytochrome P450 2D6 = Cytochrome P450 2D6 (Homo sapiens, UniProt P10635); assay: Inhibition of CYP2D6 in human liver microsomes using bufuralol as substrate in presence of NADPH by LC-MS/MS analysis; type: ADME, Microsome
[20] = Half-life in Sprague-Dawley rat at 0.5 mg/kg, iv administered as cassette dose and measured upto 24 hrs by LC-MS/MS analysis; type: ADME, organism-based; settings: in vivo
Cytochrome P450 2B6 = biological target: T3, Cytochrome P450 2B6 (Homo sapiens, UniProt P20813); assay: Inhibition of CYP2B6 in human liver microsomes using bupropion as substrate in presence of NADPH by LC-MS/MS analysis; type: ADME, Microsome
T3 sequence (P20813 whole entry): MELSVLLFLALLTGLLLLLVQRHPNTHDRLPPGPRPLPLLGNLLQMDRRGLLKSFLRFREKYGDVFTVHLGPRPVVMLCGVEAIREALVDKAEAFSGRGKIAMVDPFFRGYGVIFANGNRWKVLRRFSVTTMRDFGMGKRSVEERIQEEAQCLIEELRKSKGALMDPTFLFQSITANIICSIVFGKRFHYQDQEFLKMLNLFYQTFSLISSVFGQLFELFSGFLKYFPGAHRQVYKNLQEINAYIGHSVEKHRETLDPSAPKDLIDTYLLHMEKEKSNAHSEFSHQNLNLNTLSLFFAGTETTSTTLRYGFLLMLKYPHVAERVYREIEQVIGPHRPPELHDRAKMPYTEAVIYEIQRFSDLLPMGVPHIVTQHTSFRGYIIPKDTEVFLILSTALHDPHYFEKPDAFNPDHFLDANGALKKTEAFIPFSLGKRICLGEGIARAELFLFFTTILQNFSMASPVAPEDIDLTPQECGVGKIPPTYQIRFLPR

[21] = AUC in Sprague-Dawley rat at 3 mg/kg, po administered as cassette dose and measured upto 24 hrs by LC-MS/MS analysis; type: ADME, organism-based; settings: in vivo

Sequence of Cytochrome P450 2C19 (P33261 whole entry): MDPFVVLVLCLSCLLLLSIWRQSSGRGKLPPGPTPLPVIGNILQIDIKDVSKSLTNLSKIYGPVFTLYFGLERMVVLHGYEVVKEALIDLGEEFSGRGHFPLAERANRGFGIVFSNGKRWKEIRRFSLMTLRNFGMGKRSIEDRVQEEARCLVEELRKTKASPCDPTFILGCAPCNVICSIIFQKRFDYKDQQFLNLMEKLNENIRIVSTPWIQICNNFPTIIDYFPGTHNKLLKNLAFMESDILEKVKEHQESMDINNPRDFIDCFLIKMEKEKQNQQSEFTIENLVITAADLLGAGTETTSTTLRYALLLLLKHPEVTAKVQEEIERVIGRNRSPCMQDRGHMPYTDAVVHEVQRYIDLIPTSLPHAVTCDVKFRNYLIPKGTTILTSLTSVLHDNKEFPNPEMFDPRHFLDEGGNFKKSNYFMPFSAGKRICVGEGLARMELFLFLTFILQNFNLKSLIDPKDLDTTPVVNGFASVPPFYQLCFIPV
Sequence of Cytochrome P450 3A4 (P08684 whole entry): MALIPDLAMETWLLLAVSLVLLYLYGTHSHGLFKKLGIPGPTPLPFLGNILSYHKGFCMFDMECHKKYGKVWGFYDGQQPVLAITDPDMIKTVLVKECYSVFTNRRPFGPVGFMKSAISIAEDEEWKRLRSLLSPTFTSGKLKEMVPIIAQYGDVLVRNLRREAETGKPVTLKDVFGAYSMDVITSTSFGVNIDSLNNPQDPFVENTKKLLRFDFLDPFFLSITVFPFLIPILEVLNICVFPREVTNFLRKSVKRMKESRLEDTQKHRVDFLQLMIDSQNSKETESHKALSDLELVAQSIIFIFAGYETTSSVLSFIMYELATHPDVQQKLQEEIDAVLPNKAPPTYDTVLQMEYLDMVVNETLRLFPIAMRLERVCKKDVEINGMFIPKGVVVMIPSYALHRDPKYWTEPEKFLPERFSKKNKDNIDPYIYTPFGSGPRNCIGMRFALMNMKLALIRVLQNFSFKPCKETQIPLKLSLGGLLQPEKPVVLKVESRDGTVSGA
Sequence of hERG (KCNH2) (Q12809 whole entry): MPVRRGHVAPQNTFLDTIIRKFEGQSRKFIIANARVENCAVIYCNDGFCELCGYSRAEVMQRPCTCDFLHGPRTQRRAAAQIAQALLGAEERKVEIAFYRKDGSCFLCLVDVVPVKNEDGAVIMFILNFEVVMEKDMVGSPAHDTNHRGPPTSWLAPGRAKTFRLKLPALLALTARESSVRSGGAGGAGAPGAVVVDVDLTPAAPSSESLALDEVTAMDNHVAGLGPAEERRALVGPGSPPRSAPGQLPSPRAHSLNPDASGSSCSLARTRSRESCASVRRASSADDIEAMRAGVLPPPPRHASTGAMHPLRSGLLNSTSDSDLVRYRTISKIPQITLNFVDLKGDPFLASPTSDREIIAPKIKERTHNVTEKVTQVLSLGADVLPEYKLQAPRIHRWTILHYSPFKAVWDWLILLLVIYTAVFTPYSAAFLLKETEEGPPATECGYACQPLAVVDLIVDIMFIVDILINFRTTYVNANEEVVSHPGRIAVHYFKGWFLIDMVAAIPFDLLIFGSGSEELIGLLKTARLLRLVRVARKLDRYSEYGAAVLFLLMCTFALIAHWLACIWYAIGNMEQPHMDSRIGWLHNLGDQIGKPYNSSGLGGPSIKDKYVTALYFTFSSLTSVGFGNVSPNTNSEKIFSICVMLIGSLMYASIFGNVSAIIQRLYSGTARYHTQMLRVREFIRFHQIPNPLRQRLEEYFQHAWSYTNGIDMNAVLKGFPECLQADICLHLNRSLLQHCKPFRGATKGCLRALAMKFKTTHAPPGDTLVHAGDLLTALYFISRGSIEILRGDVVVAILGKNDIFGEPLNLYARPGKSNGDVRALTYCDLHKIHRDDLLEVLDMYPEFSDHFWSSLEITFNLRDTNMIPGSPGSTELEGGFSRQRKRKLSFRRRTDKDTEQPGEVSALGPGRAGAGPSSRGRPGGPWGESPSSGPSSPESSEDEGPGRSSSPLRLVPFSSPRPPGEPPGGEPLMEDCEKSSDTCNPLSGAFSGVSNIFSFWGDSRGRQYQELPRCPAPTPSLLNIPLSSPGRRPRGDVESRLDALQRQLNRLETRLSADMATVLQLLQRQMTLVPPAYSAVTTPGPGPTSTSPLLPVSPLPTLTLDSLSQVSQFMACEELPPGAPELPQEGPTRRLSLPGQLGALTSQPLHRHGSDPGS
Sequence of Cytochrome P450 2D6 (P10635 whole entry): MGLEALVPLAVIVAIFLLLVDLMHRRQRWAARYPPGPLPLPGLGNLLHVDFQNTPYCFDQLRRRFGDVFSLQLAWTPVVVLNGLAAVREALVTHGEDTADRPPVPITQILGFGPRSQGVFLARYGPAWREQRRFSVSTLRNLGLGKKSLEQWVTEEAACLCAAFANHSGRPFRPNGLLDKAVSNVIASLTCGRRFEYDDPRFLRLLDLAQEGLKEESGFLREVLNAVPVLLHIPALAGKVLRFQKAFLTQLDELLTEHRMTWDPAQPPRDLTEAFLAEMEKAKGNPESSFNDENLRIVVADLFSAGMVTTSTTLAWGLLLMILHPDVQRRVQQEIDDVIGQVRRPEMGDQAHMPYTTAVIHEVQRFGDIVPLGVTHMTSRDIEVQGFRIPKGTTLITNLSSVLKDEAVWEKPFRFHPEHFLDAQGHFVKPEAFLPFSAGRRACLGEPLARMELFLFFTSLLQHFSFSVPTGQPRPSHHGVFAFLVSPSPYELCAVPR
Sequence of Cytochrome P450 2C9 (P11712 whole entry): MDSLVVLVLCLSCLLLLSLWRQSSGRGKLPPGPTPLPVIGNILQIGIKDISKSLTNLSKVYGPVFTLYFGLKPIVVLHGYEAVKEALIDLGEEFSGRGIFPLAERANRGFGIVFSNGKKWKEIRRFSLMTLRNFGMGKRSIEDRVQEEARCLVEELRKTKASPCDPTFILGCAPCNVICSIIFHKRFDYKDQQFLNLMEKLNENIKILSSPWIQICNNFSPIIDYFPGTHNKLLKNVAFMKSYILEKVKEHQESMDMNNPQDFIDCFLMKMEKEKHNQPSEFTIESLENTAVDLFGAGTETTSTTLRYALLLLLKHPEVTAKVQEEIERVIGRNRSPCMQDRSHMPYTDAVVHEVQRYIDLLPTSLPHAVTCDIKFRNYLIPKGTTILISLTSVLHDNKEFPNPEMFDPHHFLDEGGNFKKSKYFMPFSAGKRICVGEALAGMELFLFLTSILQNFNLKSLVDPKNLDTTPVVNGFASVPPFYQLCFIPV

CC(C)(O)Cn1cc(-c2nc(NC3CCN(S(=O)(=O)C4CC4)CC3)ncc2C(F)(F)F)cn1
fraction unbound at 2 h [1]: 0.12 | IC50 (Cytochrome P450 1A2): > 25 µM | bioavailability [2]: 21% | Cmax [3]: 962 nM | Activity [4]: Non-Toxic | inhibition in vivo at 30 mg/kg (OVCAR-3): 38% | IC50 (Cytochrome P450 3A4): > 25 µM | IC50 (Cytochrome P450 2C9): > 25 µM | inhibition in vivo at 30 mg/kg [5]: ~50% | Cmax [6]: 757 nM | QH [7]: 130% | IC50 (Cytochrome P450 2C8): > 25 µM | Activity [8]: Non-Toxic | Vd [9]: 0.4 L/kg | IC50 (Cytochrome P450 2C19): > 25 µM | Vd [10]: 1.8 L/kg | Cp [11]: Bld | half-life [12]: 2.6 h | Activity [13]: Non-Toxic | inhibition at 10 µM (hERG (KCNH2)): 6.6% | CLint scaled at 1 µM [14]: 8.33 mL/min/kg | Papp A→B at 2 h, 50 µM [15]: 13 ×10⁻⁶ cm/s | bioavailability [16]: 51% | QH [17]: 9% | solubility [18]: > 400 µg/mL | AUC at 24 h [19]: 5.65 µM·h | IC50 (Cytochrome P450 2D6): > 25 µM | half-life [20]: 2 h | IC50 (Cytochrome P450 2B6): > 25 µM | AUC at 24 h [21]: 0.751 µM·h
